Test results published in BigSolDB 2.1.

Nc1cccc2c1CN(C1CCC(=O)NC1=O)C2=O (stereo not given)
solubility (mole fraction)
Conditions | 273.15 K | 278.15 K | 283.15 K | 288.15 K | 293.15 K | 298.15 K | 303.15 K | 308.15 K | 313.15 K | 318.15 K
in acetonitrile | 0.000444 | 0.000458 | 0.000476 | 0.000496 | 0.000516 | 0.000536 | 0.000558 | 0.000579 | 0.000601 | 0.000623
in ethyl acetate | 8e-05 | 9.2e-05 | 0.000105 | 0.00012 | 0.000136 | 0.000152 | 0.000168 | 0.000186 | 0.000206 | 0.000226
in isopropanol | 2.5e-05 | 3.2e-05 | 4.1e-05 | 5.2e-05 | 6.6e-05 | 8e-05 | 9.5e-05 | 0.000114 | 0.000136 | 0.00016
in methanol | 0.00019 | 0.000204 | 0.00022 | 0.000237 | 0.000256 | 0.000276 | 0.000301 | 0.000326 | 0.000351 | 0.000383
